Data reported in patent publication US20120040956A1, “INHIBITORS OF HIF-1 PROTEIN ACCUMULATION” (INTERMED DISCOVERY GMBH, priority 2008, published 2012).

Assays:
NHDF (fibroblast) = NHDF (fibroblast) spheroid sprouting/scattering in 3D collagen gel; assay type: cell-based; conditions: Homo sapiens, 24 h, 3D collagen gel, read-out: IC50, NHDF fibroblast spheroid sprouting/scattering
Description: Prior application the stock solution [100 mM] of IMD-019064 was diluted 1:10 in DMSO and serially diluted in half logarithmic steps covering the concentration range from 10 mM to 1 μM using 100% DMSO. The final assay concentration ranged from 100 μM to 10 nM with a final DMSO concentration in the assay of 1%. The experiments were pursued in modification of the originally published protocol (Korff and Augustin: J Cell Sci 112: 3249-58, 1999). In brief, spheroids were prepared as described by Korff and Augustin: J Cell Biol 143: 1341-52, 1998) by pipetting 500 endothelial cells (EC) in a hanging drop on plastic dishes to allow overnight spheroid aggregation. […]
Plates were incubated at 37° C. for 24 hours and fixed by adding 4% paraformaldehyde. The cumulative sprout length of 10 randomly selected spheroids per data point was analyzed and the relative inhibition by the test compound determined. […] Sprouting intensity of EC and fibroblast spheroids was quantitated by an image analysis system using an inverted microscope and the digital imaging software Analysis 3.2 (Soft imaging system, Munster, Germany). […] The cumulative sprout length of 10 randomly selected spheroids per data point was analyzed according to the procedure used for the HUVEC experiment. […]

HIF-1α mRNA = test: Hif-1α mRNA expression by real-time PCR; assay type: cell-based; conditions: human cells, 250 nM for 3 h, normoxic or hypoxic (45 minutes, 1% O2)
Description: In order to investigate whether the compounds of the invention do exert their HIF-1-1 suppressive action via inhibition of HIF-1-1 transcription the compounds were tested for their effects on HIF-1α mRNA production. In all experiments, human cells were exposed to efficiently blocking concentrations (250 nM) of the test compounds for 3 h. Then cells were further cultivated under normoxic or hypoxic conditions (45 minutes, 1% O2) respectively. Afterwards cell samples were harvested and RNA was extracted. cDNA was synthesized using specific primers and the PE Applied Biosystems Reverse Transcription Reagents. Real-time PCR was performed by using the SYBR Green I detection chemistry (Applied Biosystems) and an ABI Prism 7300 system. The expression of Hif-1α was quantified and results were normalized to Hprt1 and β-Actin (“housekeeping-gene”) expression. The relative abundance of the different genes was calculated by the comparative CT method. HIF-1α transcription of normoxic control cells was arbitrarily set to 1. […] Therefore an effect of IMD-compounds on HIF-1-dependent gene expression seems not to be mediated on HIF-1α transcription (FIG. 5).

HIF-1 = test: HIF-1-dependent luciferase reporter gene activity in 293T cells under hypoxia; assay type: cell-based, human
Description: A HIF-1-dependent luciferase reporter gene was transfected into 293T cells by transfection with Rotifect™ (Trademarked by Carl Roth GmbH; Karlsruhe, Germany) or alternatively into Jurkat T cells by electroporation. Both cell lines were transfected with a HIF-1-dependent reporter gene. The next day, cells were preincubated for 1 h with the indicated, submicromolar concentrations of the test compounds and then incubated for further 8 h under normoxic or hypoxic (1% O2) conditions. After that, cells were harvested followed by the analysis of luciferase activity in a luminometer.
A HIF-1-dependent luciferase reporter gene was transfected into 293T cells. The next morning, cells were pretreated for 1 h with the indicated concentrations of compounds, followed by induction of hypoxia (hypoxia chamber) for 8 h. Subsequently cells were harvested and lyzed. Luciferase activity in cell extracts was measured in a luminometer (Duo Lumat LB 9507, Berthold) by injecting 20 microliter of assay buffer to 20 microliter of extract. Light emission was measured for 10 s, relative light units are given.
After transfection of 293T cells with a HIF-1-dependent luciferase reporter gene, cells were further incubated under normoxic or hypoxic (8 h, 1% O2) conditions as shown in FIG. 4. Effectively blocking concentrations of the IMDs (250 nM each) were added either 1 hour prior to hypoxia or 2 and 4 hours after induction of hypoxia.

[1] = test system: PDK1 (pyruvate dehydrogenase kinase1); test: HIF-1 target gene PDK1 expression in 293T cells by real-time PCR; assay type: cell-based; conditions: Homo sapiens, HEK-293T, 1 h pretreatment, 8 h hypoxia, read-out: IC50, suppression of endogenous PDK1 gene expression
Description: Human 293T cells were cultivated either under normoxic conditions or under hypoxic conditions (1% oxygen) for 4 and 8 hs respectively. Cells were harvested, followed by the isolation of RNA and the generation of cDNAs from Oligo (dT)20 primers using a Reverse Transcriptase kit. Then gene expression was measured by real-time PCR for the following two selected HIF-1α target genes: LDH-A (lactate dehydrogenase isoform A), and PDK1 (pyruvate dehydrogenase kinase1). Real-time PCR was performed with cDNA using specific primers and the SYBR Green I detection chemistry system (Applied Biosystems), utilizing an ABI Prism 7300 system. Actin was also measured as an internal control. The relative abundance of the different genes was calculated by the comparative CT method. In order to facilitate comparison, gene expression under normoxic conditions was arbitrarily set to 1 for each of the three genes. Two independent experiments confirmed PDK1 as the gene which was induced most prominently compared to LDH.
To investigate the capability of the compounds to inhibit PDK1, 293T cells were pretreated for 1 h with 3 different concentrations of the respective inhibitors (IMD-019064; IMD-026259; and IMD-026260). Subsequently, cells were incubated under normoxic/hypoxic conditions for further 8 h and the expression of PDK1 was quantified by real-time PCR as described above.

[2] = test system: cell-free protein translation (BMV mRNA, ribosomes); test: Cell-free protein translation of Brome mosaic virus (BMV) mRNA with ribosomes; assay type: biochemical; conditions: relevant (nM) concentrations, SDS-PAGE
Description: The effect of IMD-019064 on cell-free protein translation in vitro was investigated (see also assay principle in FIG. 8). Brome mosaic virus (BMV) mRNA encoding for 4 different viral proteins was incubated with ribosomes in the presence and absence of IMD-019064 (FIG. 9a), IMD-026259, IMD-026260 (FIG. 9b), or cycloheximide (Chx, 10 μM) (positive control) and the formed proteins analyzed by SDS-PAGE.
Panels show representative SDS-PAGE protein gels. Vehicle-containing translation reactions (Veh) represent 100% translation efficacy, while Cycloheximide (Chx; 10 μg/ml) a known inhibitor of protein translation that was used as a positive control does show significant protein reduction.

## CNCCOc1ccc2c(c1)OC1(c3ccc(Cl)cc3)C(c3ccccc3)CC(O)C21O (stereo not drawn) [IMD-026260, (1,3a,8b)-3a-(4-chlorophenyl)-6-(2-(methylamino)ethoxy)-3-phenyl-2,3,3a,8b-tetrahydro-1H-benzo[d]cyclopenta[b]furan-1,8b-diol]
NHDF (fibroblast)
  IC50: 180 nM
HIF-1α mRNA
  effect on Hif-1α mRNA production: did not show any effects
HIF-1; 250 nM, added 4 hours after induction of hypoxia (8 h, 1% O2)
  time-dependency of inhibition of HIF-1-dependent luciferase expression: able to inhibit HIF-1-dependent luciferase expression even when added 4 hours after hypoxic induction
HIF-1; Homo sapiens, HEK-293T, 1 h pretreatment, hypoxia 8 h, read-out: IC50, HIF-1 luciferase inhibitory activity
  IC50: 18 nM
[1]
  IC50: 8 nM
[2]
  effect on in vitro protein translation: No significant effect
